Reference: PubChem BioAssay AID256 (DTP/NCI, 2004)
Values joined by “and” are separate entries in the source; they are usually repeats but may differ in a detail not shown here. Equal values may be shown once. Toxic doses and inconclusive results are not listed. The calls were made as follows: active = survival T/C of 150% or more; inactive = T/C below 125% in these data.

System: CD2F1 mice, L1210 leukemia ip, survival T/C
Experiment: NCI In Vivo Anticancer Drug Screen. Data for tumor model L1210 Leukemia (intraperitoneal) in CD2F1 (CDF1) mice
Settings: higher = longer survival
How it was run: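 Implant tumor; dose compound or vehicle; measure endpoint in both groups; report treated divided by control.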

[1] = endpoint: mean survival time, dose: 100.0 mg/kg/injection, schedule: Q01DX009 (ip), vehicle: saline with Tween-80
[2] = endpoint: mean survival time, dose: 200.0 mg/kg/injection, schedule: Q01DX009 (ip), vehicle: saline with Tween-80
[3] = endpoint: mean survival time, dose: 400.0 mg/kg/injection, schedule: Q01DX009 (ip), vehicle: saline with Tween-80
[4] = endpoint: mean survival time, dose: 100.0 mg/kg/injection, schedule: Q01DX001 (ip), vehicle: saline
[5] = endpoint: mean survival time, dose: 200.0 mg/kg/injection, schedule: Q01DX001 (ip), vehicle: saline
[6] = endpoint: mean survival time, dose: 400.0 mg/kg/injection, schedule: Q01DX001 (ip), vehicle: saline
[7] = endpoint: mean survival time, dose: 200.0 mg/kg/injection, schedule: Q04DX003 (ip), vehicle: saline with Tween-80
[8] = endpoint: mean survival time, dose: 400.0 mg/kg/injection, schedule: Q04DX003 (ip), vehicle: saline with Tween-80
[9] = endpoint: mean survival time, dose: 100.0 mg/kg/injection, schedule: Q04DX003 (ip), vehicle: saline with Tween-80
[10] = endpoint: mean survival time, dose: 50.0 mg/kg/injection, schedule: Q01DX009 (ip), vehicle: saline with Tween-80

Measured: T/C

CN(C)N=Nc1ccc(C(=O)O)cc1
active: endpoint: mean survival time, dose: 65.0 mg/kg/injection, schedule: Q01DX009 (ip), vehicle: saline 154 % of control | endpoint: mean survival time, dose: 100.0 mg/kg/injection, schedule: Q01DX009 (ip), vehicle: saline 172 % of control | endpoint: median survival time, dose: 100.0 mg/kg/injection, schedule: Q01DX005 (ip), vehicle: saline 151 % of control and 170 % of control | endpoint: median survival time, dose: 166.6 mg/kg/injection, schedule: Q01DX005 (ip), vehicle: saline 179 % of control
inactive: endpoint: mean survival time, dose: 25.0 mg/kg/injection, schedule: Q01DX009 (ip), vehicle: saline 112 % of control | endpoint: mean survival time, dose: 25.0 mg/kg/injection, schedule: Q04DX003 (ip), vehicle: saline 96 % of control | endpoint: mean survival time, dose: 45.0 mg/kg/injection, schedule: Q01DX009 (ip), vehicle: saline 124 % of control | endpoint: mean survival time, dose: 50.0 mg/kg/injection, schedule: Q01DX009 (ip), vehicle: saline 124 % of control | endpoint: mean survival time, dose: 50.0 mg/kg/injection, schedule: Q04DX003 (ip), vehicle: saline 102 % of control | endpoint: mean survival time, dose: 100.0 mg/kg/injection, schedule: Q04DX003 (ip), vehicle: saline 109 % of control | endpoint: mean survival time, dose: 200.0 mg/kg/injection, schedule: Q01DX009 (ip), vehicle: saline 90 % of control | endpoint: mean survival time, dose: 200.0 mg/kg/injection, schedule: Q04DX003 (ip), vehicle: saline 123 % of control | endpoint: mean survival time, dose: 400.0 mg/kg/injection, schedule: Q04DX003 (ip), vehicle: saline 103 % of control | endpoint: median survival time, dose: 25.0 mg/kg/injection, schedule: Q01DX005 (ip), vehicle: saline 122 % of control | endpoint: median survival time, dose: 36.0 mg/kg/injection, schedule: Q01DX005 (ip), vehicle: saline 116 % of control | endpoint: median survival time, dose: 50.0 mg/kg/injection, schedule: Q01DX005 (ip), vehicle: saline 124 % of control | endpoint: median survival time, dose: 200.0 mg/kg/injection, schedule: Q01DX005 (ip), vehicle: saline 112 % of control

CC(C)CCCC(C)C1CCC2C3CC=C4CC(OC(=O)CCC(C)C)CC(O)C4(C)C3CCC12C (configuration not stated)
inactive: [1] 96 % of control | [2] 94 % of control | [3] 94 % of control

Cc1ccc(NNC(N)=O)cc1
inactive: endpoint: mean survival time, dose: 25.0 mg/kg/injection, schedule: Q01DX001 (ip), vehicle: Klucel (hydroxypropylcellulose) (HPC) 104 % of control | endpoint: mean survival time, dose: 50.0 mg/kg/injection, schedule: Q01DX001 (ip), vehicle: Klucel (hydroxypropylcellulose) (HPC) 93 % of control | endpoint: mean survival time, dose: 100.0 mg/kg/injection, schedule: Q01DX001 (ip), vehicle: Klucel (hydroxypropylcellulose) (HPC) 89 % of control

CC(=O)OC(c1ccccc1)C(OC(C)=O)c1ccccc1 (configuration not stated)
inactive: endpoint: mean survival time, dose: 75.0 mg/kg/injection, schedule: Q01DX001 (ip), vehicle: other 104 % of control | endpoint: mean survival time, dose: 150.0 mg/kg/injection, schedule: Q01DX001 (ip), vehicle: other 102 % of control | endpoint: mean survival time, dose: 300.0 mg/kg/injection, schedule: Q01DX001 (ip), vehicle: other 88 % of control

CN1C2C=CC(=O)C1C1C(=O)N(c3ccccc3)C(=O)C12 (configuration not stated)
inactive: endpoint: median survival time, dose: 12.5 mg/kg/injection, schedule: Q01DX005 (ip), vehicle: Klucel (hydroxypropylcellulose) (HPC) 93 % of control | endpoint: median survival time, dose: 25.0 mg/kg/injection, schedule: Q01DX005 (ip), vehicle: Klucel (hydroxypropylcellulose) (HPC) 98 % of control | endpoint: median survival time, dose: 50.0 mg/kg/injection, schedule: Q01DX005 (ip), vehicle: Klucel (hydroxypropylcellulose) (HPC) 93 % of control | endpoint: median survival time, dose: 100.0 mg/kg/injection, schedule: Q01DX005 (ip), vehicle: Klucel (hydroxypropylcellulose) (HPC) 94 % of control | endpoint: median survival time, dose: 200.0 mg/kg/injection, schedule: Q01DX005 (ip), vehicle: Klucel (hydroxypropylcellulose) (HPC) 95 % of control

OCC1OC(n2cc(I)c3c(Cl)ncnc32)C(O)C1O (configuration not stated)
inactive: [4] 98 % of control | [5] 110 % of control | [6] 110 % of control

CCCCCCCCN(CCCCCCCC)CC(O)c1ccc2c(c1)Sc1ccccc1O2 (configuration not stated)
inactive: endpoint: mean survival time, dose: 75.0 mg/kg/injection, schedule: Q01DX001 (ip), vehicle: saline 93 % of control | endpoint: mean survival time, dose: 150.0 mg/kg/injection, schedule: Q01DX001 (ip), vehicle: saline 90 % of control

Cc1cc(C)c(B(c2c(C)cc(C)cc2C)c2c(C)cc(C)cc2C)c(C)c1
inactive: [1] 100 % of control | [2] 94 % of control | [7] 90 % of control | [3] 94 % of control | [8] 96 % of control

COC(=O)c1ccc(O)c(O)c1
inactive: [1] 102 % of control | [9] 99 % of control | [2] 101 % of control | [7] 102 % of control | [3] 90 % of control | [8] 91 % of control

Cc1cc(N2CCC(N3CCCC3)CC2)nc(/N=C(\N)Nc2ccc(Cl)c(Cl)c2)n1
inactive: endpoint: mean survival time, dose: 12.5 mg/kg/injection, schedule: Q04DX003 (ip), vehicle: saline with Tween-80 98 % of control | endpoint: mean survival time, dose: 25.0 mg/kg/injection, schedule: Q04DX003 (ip), vehicle: saline with Tween-80 101 % of control | endpoint: mean survival time, dose: 50.0 mg/kg/injection, schedule: Q04DX003 (ip), vehicle: saline with Tween-80 86 % of control

CN=C(N)N/N=C(\C)c1ccc2oc3ccc(/C(C)=N/NC(N)=NC)cc3c2c1
inactive: endpoint: median survival time, dose: 4.7 mg/kg/injection, schedule: Q01DX009 (ip), vehicle: saline with Tween-80 123 % of control | endpoint: median survival time, dose: 6.25 mg/kg/injection, schedule: Q01DX009 (ip), vehicle: saline with Tween-80 117 % of control | endpoint: median survival time, dose: 9.38 mg/kg/injection, schedule: Q01DX009 (ip), vehicle: saline with Tween-80 121 % of control | endpoint: median survival time, dose: 12.5 mg/kg/injection, schedule: Q01DX009 (ip), vehicle: saline with Tween-80 123 % of control | endpoint: median survival time, dose: 50.0 mg/kg/injection, schedule: Q01DX009 (ip), vehicle: saline with Tween-80 122 % of control | endpoint: median survival time, dose: 75.0 mg/kg/injection, schedule: Q01DX009 (ip), vehicle: saline with Tween-80 90 % of control

Cc1ccccc1NCC#N
inactive: endpoint: mean survival time, dose: 25.0 mg/kg/injection, schedule: Q01DX009 (ip), vehicle: saline with Tween-80 101 % of control | [10] 97 % of control | [9] 93 % of control

COC(=O)C(CSCc1ccccc1)NC(=O)C(C)NC(=O)OCc1ccccc1 (configuration not stated)
inactive: [1] 88 % of control | [2] 92 % of control | [3] 92 % of control

[O-][n+]1ccccc1F
inactive: [4] 104 % of control

O=S(=O)(O)O.[Fe]
inactive: endpoint: mean survival time, dose: 50.0 mg/kg/injection, schedule: Q01DX009 (ip), vehicle: saline sonified 86 % of control | [9] 96 % of control | [7] 88 % of control

COC(=O)CNC(=O)C(F)(F)F
inactive: [4] 104 % of control | [9] 103 % of control | [5] 112 % of control | [7] 101 % of control | [6] 104 % of control | [8] 103 % of control

O=C(O)/C=C/C(=O)NNC(=O)/C=C/C(=O)O
inactive: [10] 94 % of control | [1] 96 % of control | [2] 91 % of control

COc1ccc2[nH]c3cc(Cl)ccc3c(=O)c2c1
inactive: endpoint: mean survival time, dose: 100.0 mg/kg/injection, schedule: Q01DX001 (ip), vehicle: saline with Tween-80 87 % of control | endpoint: mean survival time, dose: 400.0 mg/kg/injection, schedule: Q01DX001 (ip), vehicle: saline with Tween-80 90 % of control
